# Structures can show the parent of a compound that is named as a salt.
# Experiments:
# [1] = biological target: T1, CB1 receptor (UniProt P20272); test: In-vitro determination of affinity to CB1/CB2-receptors (radioligand [3H]-CP55940 binding); conditions: for Inhibition [%], 10^−7 M: compound at 10^−7 M; for Inhibition [%], 10^−8 M: compound at 10^−8 M
# T1 construct: other: compound at 10^−7 M; radioligand [3H]-CP55940; other: compound at 10^−8 M
# Protocol: (§1) The in-vitro determination of the affinity of the inventive substituted pyrazoline compounds to CB1/CB2-Rezeptors is carried out as described in the publication of Ruth A. Ross, Heather C. Brockie et al., “Agonist-inverse agonist characterization at CB1 and CB2 cannabinoid receptors of L-759633, L759656 and AM630”, British Journal of Pharmacology, 126, 665-672, (1999), whereby the transfected human CB1 and CB2 receptors of Receptor Biology, Inc. are used. The radioligand used for both receptors is [^3H]-CP55940. The respective parts of the description is hereby incorporated by reference and forms part of the present disclosure.
# (§2) Binding affinity to CB1 receptor was evaluated according to a modification of the method described by Govaerts et al., Eur J Pharmac Sci 23, 233-243 (2004). The respective parts of the description is hereby incorporated by reference and forms part of the present disclosure.
# (§3) Briefly, cerebellum from male wistar rats (250-300 g) were carefully dissected on ice and homogenates were prepared with Potter-Helveheim in a cold 50 mM Tris-HCl solution containing 5 mM MgCl2, 1 mM EDTA and 0.25 M sucrose, pH 7.4. The suspension was centrifuged at 1,000×g for 5 minutes. The supernatants were collected and centrifuged 50,000×g for 15 minutes. The resulting pellets were then resuspended in Tris-HCl buffer without sucrose, homogenized and incubated for 15 min at 37° C. in an orbital shaker bath and centrifuged again at 50,000×g for 15 min. Pellets were weighted, resuspended in Tris-HCl buffer without sucrose, homogenized with Ultraturrax at 13,500 rpm for 3×5 seconds and alicuoted in 0.9 ml volumes in Eppendorf tubes. Alicuotes were centrifuged at 20,800×g for 5 minutes, supernatants discarded and pellets were frozen at −80° C. until use. Total protein concentration was determined using the Bio-Rad Lowry method based kit. Competitive binding experiments were performed in presence of 1 nM [^3H]-CP 55,940 in siliconized glass tubes containing 100 μg protein/tube resuspended in 1 ml final volume of 50 mM Tris-HCl, 5 mM MgCl2, 1 mM EDTA, 0.5% (w/v) bovine serum albumin, pH 7.4. Compounds were present at various concentrations and the non specific binding was determined in the presence of 10 μM HU-210. After 1 hour incubation at 30° C., the suspension was rapidly filtered through 0.5% PEI pre-treated GF/B fiber filters on a 96-well harvester and washed 3 times with 3 ml ice-cold binding buffer without bovine serum albumin. Radioactivity on filters was measured with Wallac Winspectral 1414 counter by liquid scintillation in 6 ml Ecoscint H (National Diagnostics, U.K.). Assays were made in triplicates.
# (§4) Binding data were analyzed by non-linear regression with the software GraphPad Prism Version 3.03.
# [2] = biological target: T2, CB1 receptor; test: as above; conditions: binding data per pharmacological methods part I, table does not say whether human transfected receptor or rat cerebellum
# T2 construct: IC50 [nM]; radioligand [3H]-CP55940
# Protocol: as §1, §2, §3, §4
# [3] = biological target: recombinant human cannabinoid 1 receptor (CB1) (Homo sapiens, UniProt P21554); test: In vitro determination of antagonism to CB1-receptor ([35S]GTPγS binding assay, CHO cell membranes); assay type: biochemical; conditions: compound at 1 μM against agonist WIN 55,212-2 (3 nM to 3 μM); effect of Rimonabant (1 μM) defined as 100%
# Chain of recombinant human cannabinoid 1 receptor (CB1) (P21554 whole entry): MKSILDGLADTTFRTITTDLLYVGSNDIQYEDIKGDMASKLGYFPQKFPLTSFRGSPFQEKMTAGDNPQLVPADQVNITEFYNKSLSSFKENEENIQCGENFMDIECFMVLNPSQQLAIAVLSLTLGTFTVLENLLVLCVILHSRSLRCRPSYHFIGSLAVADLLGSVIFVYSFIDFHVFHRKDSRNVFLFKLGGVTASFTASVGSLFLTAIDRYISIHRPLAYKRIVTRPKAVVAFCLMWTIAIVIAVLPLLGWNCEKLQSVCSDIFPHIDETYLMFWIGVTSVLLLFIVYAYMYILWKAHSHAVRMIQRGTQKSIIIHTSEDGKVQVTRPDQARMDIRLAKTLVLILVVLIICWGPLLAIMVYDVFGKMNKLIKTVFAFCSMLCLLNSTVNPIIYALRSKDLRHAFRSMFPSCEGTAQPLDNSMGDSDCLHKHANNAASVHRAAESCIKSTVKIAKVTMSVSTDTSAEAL
# Protocol: Chinese hamster ovary (CHO) cells stably expressing recombinant human cannabinoid 1 receptor (CB1) were cultured in nutrient mixture Ham's F 12 supplemented with 10% heat-inactivated fetal bovine serum, 2 mM L-glutamine, 50 U/ml penicillin, 50 U/ml streptomycin and 0.5 mg/ml geneticin. In order to obtain cells, culture flasks were washed twice with phosphate buffered saline and scraped. Then, cells were collected by centrifugation (200×g, 10 min) and stored dry at −80° C. Cells were homogenized in ice-cold 20 mM HEPES, 10 mM EDTA (pH 7.5) and centrifuged at 40,000×g for 15 min at 4° C. The membrane pellet was resuspended in 20 mM HEPES, 0.1 mM EDTA (pH 7.5) and centrifuged for 15 min at 4° C. The final membrane pellet was resuspended in 20 mM HEPES, 0.1 mM EDTA (pH 7.5), and divided in aliquots and stored at −80° C. until use.
# The reaction was performed in 96-well plates. Membranes (15 μg protein/well) were incubated for 60 min at 30° C. in buffer (50 mM HEPES, 100 mM KCl, 5 mM MgCl2,1 mM EDTA, 0.1% wt/vol bovine serum albumin, 5 μM GDP, saponin (10 μg/ml), 0.5 nM [^35S]GTPγS, pH 7.4) with compound at a final concentration of 1 μM in either the absence or presence of agonist WIN 55, 212-2 between 3 nM and 3 μM. The incubation was terminated by rapid filtration through Millipore Multiscreen glass fiber FB, and rinsed two-times with ice-cold assay buffer. Filter plates were dried and 30 μl of scintillation liquid was added. Radioactivity was determined using a Wallac Microbeta Trilux. Each experiment was performed at least in duplicate. A WIN 55, 212-2 dose-response experiment either alone or in the presence of Rimonabant (1 μM) was systematically performed.
# The average of basal [^35S]GTPγS binding was subtracted from all binding data. In order to compare the antagonism results from one screening campaign to another one, the difference between the maximal agonist effect of WIN 55, 212-2 alone, and the maximal antagonism effect due to WIN 55, 212-2 plus Rimonabant (1 μM) was defined as 100%.
Compound,"Inhibition [%], 10^−7 M [1] [%]","Inhibition [%], 10^−8 M [1] [%]",IC50 [2] [µM],Antagonism [%] [3] [%],also measured
"O=C(N[N+]1([O-])CCCCC1)C1=NN(c2ccc(Cl)cc2Cl)C(c2ccc(Cl)cc2)C1 (stereo not drawn) [Example 7, N-oxide of 5-(4-Chloro-phenyl)-1-(2,4-dichloro-phenyl)-4,5-dihydro-1H-pyrazole-3-carboxylic acid piperidin-1-ylamide]",71.2,−12.8,0.146,–,–
"O=C(NN1CCOCC1)C1=NN(c2ccc(Cl)cc2Cl)C(c2ccc(Cl)cc2)C1 (stereo not drawn) [Example 8, 5-(4-Chloro-phenyl)-1-(2,4-dichloro-phenyl)-4,5-dihydro-1H-pyrazole-3-carboxylic acid morpholin-4-ylamide]",21.9,−8.2,–,54,–
"O=C(NN1CCCC1)C1=NN(c2ccc(Cl)cc2Cl)C(c2ccc(Cl)cc2)C1 (stereo not drawn) [Example 11, 5-(4-Chloro-phenyl)-1-(2,4-dichloro-phenyl)-4,5-dihydro-1H-pyrazole-3-carboxylic acid pyrrolidin-1-ylamide]",–,–,0.63,–,–
"CCCCN(NC(=O)C1=NN(c2ccc(Cl)cc2Cl)C(c2ccc(Cl)cc2)C1)c1ccccc1 (stereo not drawn) [Example 29, 5-(4-Chloro-phenyl)-1-(2,4-dichloro-phenyl)-4,5-dihydro-1H-pyrazole-3-carboxylic acid N′-butyl-N′-phenyl-hydrazide]",–,–,> 1,–,–
"CC(C)(C)C1CCC(NC(=O)C2=NN(c3ccc(Cl)cc3Cl)C(c3ccc(Cl)cc3)C2)CC1 (stereo not drawn) [Example 31, 5-(4-Chloro-phenyl)-1-(2,4-dichloro-phenyl)-4,5-dihydro-1H-pyrazole-3-carboxylic acid (4-tert-butyl-cyclohexyl)-amide]",–,–,> 1,–,–
"O=C(NCC1CCCCC1)C1=NN(c2ccc(Cl)cc2Cl)C(c2ccc(Cl)cc2)C1 (stereo not drawn) [Example 32, 5-(4-Chloro-phenyl)-1-(2,4-dichloro-phenyl)-4,5-dihydro-1H-pyrazole-3-carboxylic acid cyclohexylmethyl-amide]",52.7,12,0.084,–,–
"O=C(NC1CCCCC1)C1=NN(c2ccc(Cl)cc2Cl)C(c2ccc(Cl)cc2)C1 (stereo not drawn) [Example 41, 5-(4-Chloro-phenyl)-1-(2,4-dichloro-phenyl)-4,5-dihydro-1H-pyrazole-3-carboxylic acid cyclohexylamide]",3.4,−5.2,–,69,–
"O=C(C1=NN(c2ccc(Cl)cc2Cl)C(c2ccc(Cl)cc2)C1)N1CCN(Cc2ccccc2)CC1 (stereo not drawn) [Example 52, (4-Benzyl-piperazin-1-yl)-[5-(4-chloro-phenyl)-1-(2,4-dichloro-phenyl)-4,5-dihydro-1H-pyrazol-3-yl]-methanone]",–,–,0.251,–,–
"O=C(NN1CCCCC1)C1=NN(c2ccc(Cl)cc2Cl)C(c2ccc(Br)cc2)C1 (stereo not drawn) [Example 60, 5-(4-Bromo-phenyl)-1-(2,4-dichloro-phenyl)-4,5-dihydro-1H-pyrazole-3-carboxylic acid piperidin-1-ylamide hydrochloride]",–,–,–,–,IC50 ([2]; hydrochloride): 0.027 µM
"Cl.O=C(NN1CC2CCCC2C1)C1=NN(c2ccc(Cl)cc2Cl)C(c2ccc(F)cc2)C1 (stereo not drawn) [Example 91, 1-(2,4-Dichloro-phenyl)-5-(4-fluoro-phenyl)-4,5-dihydro-1H-pyrazole-3-carboxylic acid (hexahydro-cyclopenta[c]pyrrol-2-yl)-amide hydrochloride]",–,–,–,–,"Inhibition [%], 10^−7 M ([1]; hydrochloride): 79.1%; Inhibition [%], 10^−8 M ([1]; hydrochloride): 43%; IC50 ([2]; hydrochloride): 0.047 µM"
"Cl.O=C(NN1CC2CCCC2C1)C1=NN(c2ccc(Cl)cc2Cl)C(c2ccc(F)cc2)C1 (stereo not drawn) [Example 91A, 1-(2,4-Dichloro-phenyl)-5-(4-fluoro-phenyl)-4,5-dihydro-1H-pyrazole-3-carboxylic acid (hexahydro-cyclopenta[c]pyrrol-2-yl)-amide]",75.3,34.9,0.084,–,–
"O=C(NCC1CCCCCC1)C1=NN(c2ccc(Cl)cc2Cl)C(c2ccc(Cl)cc2)C1 (stereo not drawn) [Example 191, 5-(4-Chloro-phenyl)-1-(2,4-dichloro-phenyl)-4,5-dihydro-1H-pyrazole-3-carboxylic acid cycloheptylmethyl-amide]",67.4,30.2,–,82,–

# Now from value to molecule, other results behind:
"Inhibition [%], 10^−7 M [1] [%]","Inhibition [%], 10^−8 M [1] [%]",IC50 [2] [µM],Antagonism [%] [3] [%],Compound,also measured
65.8,33.3,0.044,–,"O=C(NN1CCCCC1)C1=NN(c2ccc(Cl)cc2Cl)C(c2ccc(Br)cc2)C1 (stereo not drawn) [Example 60A, 5-(4-Bromo-phenyl)-1-(2,4-dichloro-phenyl)-4,5-dihydro-1H-pyrazole-3-carboxylic acid piperidin-1-ylamide]",–
–,–,0.355,–,"CCCNC(=O)C1=NN(c2ccc(Cl)cc2Cl)C(c2ccc(Cl)cc2)C1 (stereo not drawn) [Example 69, 5-(4-Chloro-phenyl)-1-(2,4-dichloro-phenyl)-4,5-dihydro-1H-pyrazole-3-carboxylic acid propylamide]",–
74.8,43.3,0.056,–,"O=C(NN1CCCCCC1)C1=NN(c2ccc(Cl)cc2Cl)C(c2ccc(F)cc2)C1 (stereo not drawn) [Example 96, 1-(2,4-Dichloro-phenyl)-5-(4-fluoro-phenyl)-4,5-dihydro-1H-pyrazole-3-carboxylic acid azepan-1-ylamide]",–
−4.3,1.9,–,23,"COC(=O)C1=NN(c2ccc(Cl)cc2Cl)C(c2ccc(Cl)cc2)C1 (stereo not drawn) [Example 115, 5-(4-Chloro-phenyl)-1-(2,4-dichloro-phenyl)-4,5-dihydro-1H-pyrazole-3-carboxylic acid methyl ester]",–
7.1,−4.1,–,30,"CCOC(=O)C1=NN(c2ccc(Cl)cc2Cl)C(c2ccc(Cl)cc2)C1 (stereo not drawn) [Example 120, 5-(4-Chloro-phenyl)-1-(2,4-dichloro-phenyl)-4,5-dihydro-1H-pyrazole-3-carboxylic acid ethyl ester]",–
41.7,22.9,–,82,"Cl.O=C(NN1CCCC1)C1=NN(c2ccc(Cl)cc2Cl)C(c2ccc(Cl)cc2)C1 (stereo not drawn) [Example 194, 5-(4-Chloro-phenyl)-1-(2,4-dichloro-phenyl)-4,5-dihydro-1H-pyrazole-3-carboxylic acid pyrrolidin-1-ylamide hydrochloride]",–
